In patent publication US20030139467A1, “Diuretics containing y-tocotrienol” (priority 2000, published 2003):

Key:
[1] = Amount of γ-CEHC excreted in urine after oral γ-tocotrienol or γ-tocopherol in vitamin E-deficient rats; format: in vivo, Sprague-Dawley strain male rats; details: oral 10 mg/0.5 ml in stripped corn oil, total over 48 hours, versus γ-tocopherol in the same amount, FIG. 2
Experimental: (§1) Seven-week-old Sprague-Dawley strain male rats, purchased from Nippon Clare Co., Ltd., were preliminarily bred with solid feed CE-2 (Nippon Clare Co., Ltd.) for 1 week and then bred with vitamin E-deficient feed for 4 weeks. The rats were placed in a stainless steel cage/rat, and the breeding room was maintained at a temperature of 22±1° C. in 50 % humidity. The animals were allowed feed and water ad libitum.
(§2) The feed was prepared by adding 10% corn oil (stripped corn oil) from which vitamin E had been removed by molecular distillation, to vitamin E-deficient powdery feed.
(§3) The bred vitamin E-deficient-rats were divided into 2 groups and fasted for 17 hours, and each rat in one group was orally given 10 mg/0.5 ml γ-tocotrienol dissolved in stripped corn oil, while as the control, each rat in the other group was orally given 10 mg/0.5 ml γ-tocopherol in analogous manner. After the administration, the rats in a urine collection group were placed in a metabolic cage/rat, and their urine was collected at 6-hours intervals for 48 hours during which a collection vessel was cooled on dry ice. The rats in a bile collection group were anesthetized with Nembutal in 2 hours after the administration in consideration of absorption time, and the abdomens of the rats were opened with their back fixed under anesthesia and a canula was inserted into the bile duct. […]

[2] = Amount of γ-CEHC excreted in bile after oral γ-tocotrienol or γ-tocopherol in vitamin E-deficient rats; format: in vivo, Sprague-Dawley strain male rats; details: oral 10 mg/0.5 ml in stripped corn oil, bile collected for 24 hours, versus γ-tocopherol, FIG. 3
Experimental: as §1, §2, §3

[3] = Effect of γ-tocotrienol on urine volume and on excretion of sodium and potassium into urine; format: in vivo, SD strain male rats; details: for volume of urine, corrected with creatinine: high-salt feed groups, FIG. 4
Experimental: Seven-week-old SD strain male rats (n=20) were preliminarily bred with solid feed and divided into 2 groups. One group was given vitamin E-deficient feed (AIN-76) and used as a control group. The other group was given high-salt feed prepared by adding 5% common salt to 1 kg vitamin E-deficient feed and used as a group given high-salt (high-Na) feed. Each animal in both the groups was given 20 g feed/day for 1 week and 25 g feed/day during a period of from the second to fourth weeks. 150 ml of purified water was given as drinking water, and the remainder of the water was measured. After 4 weeks, each group was further divided into 2 groups, and each rat in one group was given 10 mg γ-tocotrienol (control +γ-tocotrienol, High-Na+γ-tocotrienol) dissolved in stripped corn oil while the other group i.e. the control was given stripped corn oil (control, High-Na) for 3 consecutive days respectively, and after administration, their urine, while being frozen on dry ice, was collected at 6-hours intervals for 24 hours. The amounts of sodium and potassium in the urine were determined by the atomic absorption method and the amount of γ-CEHC by the ECD-HPLC method.

## CC(C)=CCC/C(C)=C/CC/C(C)=C/CCC1(C)CCc2cc(O)c(C)c(C)c2O1 (stereo not drawn) [γ-tocotrienol, 2,7,8-trimethyl-2-(4,8,12-trimethyltrideca-3,7,11-trienyl)chroman-6-ol]
[1]
  amount of γ-CEHC excreted in urine for a period of up to 48 hours: significantly higher than in the group given γ-tocopherol
[2]
  γ-CEHC excreted into the bile: larger in the group given γ-tocotrienol than in the group given γ-tocopherol
[3]; 4 groups (control and high-salt feed, with or without 10 mg γ-tocotrienol), atomic absorption method, FIG. 6
  amount of potassium excreted in urine: the influence of γ-tocotrienol administration was not observed
[3]; 10 mg γ-tocotrienol for 3 consecutive days versus stripped corn oil, over 24 hours
  volume of urine, corrected with creatinine: tended to be larger in the group given γ-tocotrienol
[3]; 10 mg γ-tocotrienol versus stripped corn oil, 6 to 12 hours after the administration
  volume of urine, corrected with creatinine: significantly increased for 6 to 12 hours after the administration
[3]; high-salt group, 10 mg γ-tocotrienol versus stripped corn oil, atomic absorption method, FIG. 5
  amount of sodium excreted in urine: significantly larger amount of excreted sodium for a period of up to 12 hours after the administration
